According to patent publication US10800791B2, “Triazole ACC inhibitors and uses thereof” (Gilead Apollo, LLC, priority 2015, dated 2020):
In brackets after ≈: the same amount, converted by molar mass. Read-outs that look alike come from different tables or passages of the source.

Key:
Rhizoctonia solani (Rs) = experiment: Growth inhibition assay of fungal pathogens, Rs; assay type: cell-based; conditions: 48 h
C. parapsilosis = experiment: Antifungal Activity Assay (broth microtiter MIC), C. parapsilosis; assay type: cell-based, Candida parapsilosis; conditions: Lodderomyces parapsilosis, ATCC22019, 48 h
How it was run: (§1)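 MICs were scored by eye at 48 h relative to the growth control. Plates followed CLSI M27-A3, with Candida suspensions in RPMI 1640+MOPS giving a final 2.5×10^3 CFU/mL; the colonies came from Sabouraud agar grown overnight at 35 °C.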

Botrtyis cinerea (Bc) = experiment: Growth inhibition assay of fungal pathogens, Bc; assay type: cell-based; conditions: 48 h
How it was run: (§2)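 Spores diluted in 17% V8 liquid media and incubated with compound at final 50, 10, 2 ppm or 2, 0.4, 0.08 ppm (2% DMSO). OD600 plus visual ratings at 24 and 48 hours, blank-subtracted; percent growth inhibition from 48 h readings relative to 2% DMSO control.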

C. albicans = experiment: Antifungal Activity Assay (broth microtiter MIC), C. albicans; assay type: cell-based, Candida albicans; conditions: Candida albicans, ATCC90028, 48 h
How it was run: as §1

[1] = system: Collectotrichum graminicola (Cg); experiment: Growth inhibition assay of fungal pathogens, Cg; assay type: cell-based; conditions: 48 h
How it was run: as §2

[2] = system: Fusarium moniliforme (Fm); experiment: Growth inhibition assay of fungal pathogens, Fm; assay type: cell-based; conditions: for IC90: Fusarium verticillioides, 48 h, read-out: Concentration at 90% Inhibition Fm
How it was run: as §2

Septoria tritici (St) = experiment: Growth inhibition assay of fungal pathogens, St; assay type: cell-based; conditions: Zymoseptoria tritici, 48 h
How it was run: as §2

C. krusei = experiment: Antifungal Activity Assay (broth microtiter MIC), C. krusei; assay type: cell-based, Candida krusei; conditions: Pichia kudriavzevii, ATCC6258, 48 h
How it was run: as §1

[3] = system: Fusarium virguliforme (Fv); experiment: Growth inhibition assay of fungal pathogens, Fv; assay type: cell-based; conditions: 48 h
How it was run: as §2

fungal (fACC2) = fungal (fACC2) (UniProt Q00955); conditions: read-out: fACC2 (in vitro ACC2 Inhibition Assay, IC50), ADP-Glo, 5 nM ACC2, 20 μM ATP, 20 μM acetyl-CoA
Diplodia maydis (Dm) = experiment: Growth inhibition assay of fungal pathogens, Dm; assay type: cell-based; conditions: Stenocarpella maydis, 48 h
How it was run: as §2

[4] = Fusarium moniliforme, growth inhibition at 48 hours vs 2% DMSO control
[5] = read-out: Concentration at 90% Inhibition Rs, Rhizoctonia solani, mycelial plugs, growth inhibition at 48 hours vs 2% DMSO control
[6] = read-out: Concentration at 90% Inhibition Rs, Rhizoctonia solani, mycelial plugs, growth inhibition vs 2% DMSO control at 48 hours
[7] = read-out: MIC, C. parapsilosis ATCC 22019, Table 3a, 3 replicates, MIC recorded at 48 h
[8] = read-out: MIC, C. parapsilosis ATCC 22019, Table 3b (additional results), 3 replicates, MIC recorded at 48 h
[9] = read-out: Concentration at 90% Inhibition Bc, Botrtyis cinerea, growth inhibition at 48 hours vs 2% DMSO control
[10] = read-out: Concentration at 90% Inhibition Bc, Botrtyis cinerea, growth inhibition vs 2% DMSO control at 48 hours
[11] = read-out: MIC, C. albicans ATCC 90028, Table 3a, 3 replicates, MIC recorded at 48 h
[12] = read-out: MIC, C. albicans ATCC 90028, Table 3b (additional results), 3 replicates, MIC recorded at 48 h
[13] = read-out: Concentration at 90% Inhibition Cg, Collectotrichum graminicola, growth inhibition at 48 hours vs 2% DMSO control
[14] = read-out: Concentration at 90% Inhibition Cg, Collectotrichum graminicola, growth inhibition vs 2% DMSO control at 48 hours
[15] = read-out: Concentration at 90% Inhibition St, Septoria tritici, growth inhibition at 48 hours vs 2% DMSO control
[16] = read-out: Concentration at 90% Inhibition St, Septoria tritici, growth inhibition vs 2% DMSO control at 48 hours
[17] = read-out: MIC, C. krusei ATCC 6258, Table 3a, 3 replicates, MIC recorded at 48 h
[18] = read-out: MIC, C. krusei ATCC 6258, Table 3b (additional results), 3 replicates, MIC recorded at 48 h
[19] = read-out: Concentration at 90% Inhibition Fv, Fusarium virguliforme, growth inhibition at 48 hours vs 2% DMSO control
[20] = read-out: Concentration at 90% Inhibition Fv, Fusarium virguliforme, growth inhibition vs 2% DMSO control at 48 hours
[21] = read-out: Concentration at 90% Inhibition Dm, Diplodia maydis, growth inhibition at 48 hours vs 2% DMSO control
[22] = read-out: Concentration at 90% Inhibition Dm, Diplodia maydis, growth inhibition vs 2% DMSO control at 48 hours

Sequence of fungal (fACC2) (Q00955 whole entry): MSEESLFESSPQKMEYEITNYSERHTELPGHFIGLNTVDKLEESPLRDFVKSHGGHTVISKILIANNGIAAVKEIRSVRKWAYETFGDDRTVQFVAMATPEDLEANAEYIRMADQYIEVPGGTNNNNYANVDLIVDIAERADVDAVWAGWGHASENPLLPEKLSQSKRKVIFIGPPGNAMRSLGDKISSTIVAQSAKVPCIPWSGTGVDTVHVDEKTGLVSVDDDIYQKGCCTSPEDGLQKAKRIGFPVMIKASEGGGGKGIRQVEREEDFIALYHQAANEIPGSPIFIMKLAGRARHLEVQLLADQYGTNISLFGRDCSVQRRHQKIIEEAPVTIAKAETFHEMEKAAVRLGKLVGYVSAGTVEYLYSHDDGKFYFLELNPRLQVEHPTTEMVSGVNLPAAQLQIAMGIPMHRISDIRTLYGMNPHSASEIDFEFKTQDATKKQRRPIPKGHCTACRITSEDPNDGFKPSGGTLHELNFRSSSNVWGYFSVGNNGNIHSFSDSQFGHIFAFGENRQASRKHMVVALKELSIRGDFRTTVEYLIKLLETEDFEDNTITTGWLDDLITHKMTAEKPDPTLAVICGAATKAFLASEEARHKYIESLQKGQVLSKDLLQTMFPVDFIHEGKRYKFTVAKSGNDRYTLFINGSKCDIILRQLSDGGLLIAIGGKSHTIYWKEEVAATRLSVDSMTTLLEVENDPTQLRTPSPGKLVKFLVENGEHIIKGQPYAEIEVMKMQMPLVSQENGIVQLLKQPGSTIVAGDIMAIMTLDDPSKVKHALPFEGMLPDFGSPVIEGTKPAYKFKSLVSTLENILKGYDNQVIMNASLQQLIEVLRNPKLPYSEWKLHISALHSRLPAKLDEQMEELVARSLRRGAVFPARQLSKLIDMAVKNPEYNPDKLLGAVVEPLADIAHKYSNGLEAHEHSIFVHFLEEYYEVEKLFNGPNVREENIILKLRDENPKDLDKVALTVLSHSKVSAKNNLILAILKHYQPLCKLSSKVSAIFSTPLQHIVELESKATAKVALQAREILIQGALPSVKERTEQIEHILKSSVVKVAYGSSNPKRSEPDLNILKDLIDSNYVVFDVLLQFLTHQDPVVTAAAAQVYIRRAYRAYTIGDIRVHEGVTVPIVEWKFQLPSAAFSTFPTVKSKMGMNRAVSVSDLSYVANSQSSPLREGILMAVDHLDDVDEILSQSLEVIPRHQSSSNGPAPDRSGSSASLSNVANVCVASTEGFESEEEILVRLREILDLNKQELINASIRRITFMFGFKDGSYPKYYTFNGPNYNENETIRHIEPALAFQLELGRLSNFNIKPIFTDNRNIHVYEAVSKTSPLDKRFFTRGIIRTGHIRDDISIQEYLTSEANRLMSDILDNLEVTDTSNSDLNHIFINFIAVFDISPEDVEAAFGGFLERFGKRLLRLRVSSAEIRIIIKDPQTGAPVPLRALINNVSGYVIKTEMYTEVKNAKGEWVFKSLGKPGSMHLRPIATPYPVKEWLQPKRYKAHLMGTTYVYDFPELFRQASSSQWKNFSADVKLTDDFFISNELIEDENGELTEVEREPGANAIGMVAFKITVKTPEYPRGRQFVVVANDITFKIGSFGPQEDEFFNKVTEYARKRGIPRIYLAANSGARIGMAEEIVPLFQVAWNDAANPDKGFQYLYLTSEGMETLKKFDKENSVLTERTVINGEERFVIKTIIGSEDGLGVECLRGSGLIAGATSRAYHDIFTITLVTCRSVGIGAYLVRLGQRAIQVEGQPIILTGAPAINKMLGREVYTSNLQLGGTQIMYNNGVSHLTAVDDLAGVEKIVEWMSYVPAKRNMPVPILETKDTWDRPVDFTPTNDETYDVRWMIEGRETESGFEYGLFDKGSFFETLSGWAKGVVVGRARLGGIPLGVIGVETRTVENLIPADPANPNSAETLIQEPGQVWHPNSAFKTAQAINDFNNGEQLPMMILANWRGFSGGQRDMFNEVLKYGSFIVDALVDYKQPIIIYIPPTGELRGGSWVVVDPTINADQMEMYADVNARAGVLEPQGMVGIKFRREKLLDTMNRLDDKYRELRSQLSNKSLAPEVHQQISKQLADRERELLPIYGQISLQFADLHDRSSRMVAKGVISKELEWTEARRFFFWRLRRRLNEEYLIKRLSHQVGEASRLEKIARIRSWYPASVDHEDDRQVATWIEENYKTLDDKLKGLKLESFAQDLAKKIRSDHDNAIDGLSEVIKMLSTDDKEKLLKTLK

## COCCCO[C@@H](Cn1c(=O)n([C@H](C)C(=O)NC(C)C)c(=O)c2c(C)c(-n3nccn3)sc21)c1cc(F)ccc1OC [Compound I-87, (R)-2-(1-((R)-2-(5-fluoro-2-methoxyphenyl)-2-(3-methoxy-propoxy)ethyl)-5-methyl-2,4-dioxo-6-(2H-1,2,3-triazol-2-yl)-1,4-dihydrothieno[2,3-d]pyrimidin-3(2H)-yl)-N-isopropylpropanamide]
Rhizoctonia solani (Rs); mycelial plugs, growth inhibition at 48 hours vs 2% DMSO control, read-out: Concentration at 90% Inhibition Rs
  IC90: 0.08 µg/mL (≈ 0.133 µM)
Rhizoctonia solani (Rs); mycelial plugs, growth inhibition vs 2% DMSO control at 48 hours, read-out: Concentration at 90% Inhibition Rs
  IC90: 0.08 µg/mL (≈ 0.133 µM)
C. parapsilosis; Table 3a, ATCC 22019, 3 replicates, MIC recorded at 48 h, read-out: MIC, C. parapsilosis ATCC 22019
  MIC: 0.25 to 1 µg/mL (≈ 0.415 to 1.66 µM)
C. parapsilosis; Table 3b (additional results), ATCC 22019, 3 replicates, MIC recorded at 48 h, read-out: MIC, C. parapsilosis ATCC 22019
  MIC: 1.01 to 2 µg/mL (≈ 1.68 to 3.32 µM)
Botrtyis cinerea (Bc); Botrtyis cinerea, growth inhibition at 48 hours vs 2% DMSO control, read-out: Concentration at 90% Inhibition Bc
  IC90: 0.08 µg/mL (≈ 0.133 µM)
Botrtyis cinerea (Bc); Botrtyis cinerea, growth inhibition vs 2% DMSO control at 48 hours, read-out: Concentration at 90% Inhibition Bc
  IC90: 0.08 µg/mL (≈ 0.133 µM)
C. albicans; Table 3a, ATCC 90028, 3 replicates, MIC recorded at 48 h, read-out: MIC, C. albicans ATCC 90028
  MIC: 1.1 to 2 µg/mL (≈ 1.83 to 3.32 µM)
C. albicans; Table 3b (additional results), ATCC 90028, 3 replicates, MIC recorded at 48 h, read-out: MIC, C. albicans ATCC 90028
  MIC: 2.01 to 4 µg/mL (≈ 3.34 to 6.64 µM)
[1]; Collectotrichum graminicola, growth inhibition at 48 hours vs 2% DMSO control, read-out: Concentration at 90% Inhibition Cg
  IC90: 0.08 µg/mL (≈ 0.133 µM)
[1]; Collectotrichum graminicola, growth inhibition vs 2% DMSO control at 48 hours, read-out: Concentration at 90% Inhibition Cg
  IC90: 0.08 µg/mL (≈ 0.133 µM)
[2]; [4]
  IC90: 0.08 µg/mL (≈ 0.133 µM)
[2]; Fusarium moniliforme, growth inhibition vs 2% DMSO control at 48 hours
  IC90: 0.08 µg/mL (≈ 0.133 µM)
Septoria tritici (St); Septoria tritici, growth inhibition at 48 hours vs 2% DMSO control, read-out: Concentration at 90% Inhibition St
  IC90: 10 µg/mL (≈ 16.6 µM)
Septoria tritici (St); Septoria tritici, growth inhibition vs 2% DMSO control at 48 hours, read-out: Concentration at 90% Inhibition St
  IC90: > 50 µg/mL
C. krusei; Table 3a, ATCC 6258, 3 replicates, MIC recorded at 48 h, read-out: MIC, C. krusei ATCC 6258
  MIC: 1.1 to 2 µg/mL (≈ 1.83 to 3.32 µM)
C. krusei; Table 3b (additional results), ATCC 6258, 3 replicates, MIC recorded at 48 h, read-out: MIC, C. krusei ATCC 6258
  MIC: 1.01 to 2 µg/mL (≈ 1.68 to 3.32 µM)
[3]; growth inhibition at 48 hours vs 2% DMSO control, read-out: Concentration at 90% Inhibition Fv
  IC90: 0.08 µg/mL (≈ 0.133 µM)
[3]; growth inhibition vs 2% DMSO control at 48 hours, read-out: Concentration at 90% Inhibition Fv
  IC90: 0.08 µg/mL (≈ 0.133 µM)
Fungal (fACC2); Table 2a
  IC50: 1 to 5 nM
Fungal (fACC2); Table 2b, additional results
  IC50: 1 to 5 nM
Diplodia maydis (Dm); Diplodia maydis, growth inhibition at 48 hours vs 2% DMSO control, read-out: Concentration at 90% Inhibition Dm
  IC90: 0.4 µg/mL (≈ 0.664 µM)
Diplodia maydis (Dm); Diplodia maydis, growth inhibition vs 2% DMSO control at 48 hours, read-out: Concentration at 90% Inhibition Dm
  IC90: 0.4 µg/mL (≈ 0.664 µM)

## COc1ccc(F)cc1[C@H](Cn1c(=O)n([C@@H](C)C(=O)NC(C)C)c(=O)c2c(C)c(-n3nccn3)sc21)OCCO [Compound I-88, (S)-2-(1-((R)-2-(5-fluoro-2-methoxyphenyl)-2-(2-hydroxyethoxy)ethyl)-5-methyl-2,4-dioxo-6-(2H-1,2,3-triazol-2-yl)-1,4-dihydro-thieno[2,3-d]pyrimidin-3(2H)-yl)-N-isopropylpropanamide]
Rhizoctonia solani (Rs); [5]
  IC90: 0.08 µg/mL (≈ 0.139 µM)
Rhizoctonia solani (Rs); [6]
  IC90: 0.08 µg/mL (≈ 0.139 µM)
C. parapsilosis; [7]
  MIC: 1.1 to 2 µg/mL (≈ 1.91 to 3.48 µM)
C. parapsilosis; [8]
  MIC: 1.01 to 2 µg/mL (≈ 1.76 to 3.48 µM)
Botrtyis cinerea (Bc); [9]
  IC90: 2 µg/mL (≈ 3.48 µM)
Botrtyis cinerea (Bc); [10]
  IC90: 2 µg/mL (≈ 3.48 µM)
C. albicans; [11]
  MIC: 1.1 to 2 µg/mL (≈ 1.91 to 3.48 µM)
C. albicans; [12]
  MIC: 2.01 to 4 µg/mL (≈ 3.5 to 6.96 µM)
[1]; [13]
  IC90: 0.08 µg/mL (≈ 0.139 µM)
[1]; [14]
  IC90: 0.08 µg/mL (≈ 0.139 µM)
[2]; [4]
  Concentration at 90% Inhibition Fm: AA (compound concentration of 0.08 ppm at 90% inhibition of fungal pathogens)
[2]
  IC90: 0.08 µg/mL (≈ 0.139 µM)
Septoria tritici (St); [15]
  IC90: 2 µg/mL (≈ 3.48 µM)
Septoria tritici (St); [16]
  IC90: 10 µg/mL (≈ 17.4 µM)
C. krusei; [17]
  MIC: 0.25 to 1 µg/mL (≈ 0.435 to 1.74 µM)
C. krusei; [18]
  MIC: 1.01 to 2 µg/mL (≈ 1.76 to 3.48 µM)
[3]; [19]
  IC90: 2 µg/mL (≈ 3.48 µM)
[3]; [20]
  IC90: 2 µg/mL (≈ 3.48 µM)
Fungal (fACC2); Table 2a
  IC50: 1 to 5 nM
Fungal (fACC2); Table 2b, additional results
  IC50: 0.3 to 1 nM
Diplodia maydis (Dm); [21]
  IC90: 0.4 µg/mL (≈ 0.696 µM)
Diplodia maydis (Dm); [22]
  IC90: 0.4 µg/mL (≈ 0.696 µM)

## COc1ccc(F)cc1[C@H](Cn1c(=O)n([C@H](C)C(=O)NC(C)C)c(=O)c2c(C)c(-n3nccn3)sc21)OCCO [Compound I-89, (R)-2-(1-((R)-2-(5-fluoro-2-methoxyphenyl)-2-(2-hydroxy-ethoxy)ethyl)-5-methyl-2,4-dioxo-6-(2H-1,2,3-triazol-2-yl)-1,4-dihydrothieno[2,3-d]pyrimidin-3(2H)-yl)-N-isopropylpropanamide]
Rhizoctonia solani (Rs); [5]
  IC90: 2 µg/mL (≈ 3.48 µM)
Rhizoctonia solani (Rs); [6]
  IC90: 2 µg/mL (≈ 3.48 µM)
C. parapsilosis; [7]
  MIC: 2.1 to 4 µg/mL (≈ 3.65 to 6.96 µM)
C. parapsilosis; [8]
  MIC: 1.01 to 2 µg/mL (≈ 1.76 to 3.48 µM)
Botrtyis cinerea (Bc); [9]
  IC90: 0.4 µg/mL (≈ 0.696 µM)
Botrtyis cinerea (Bc); [10]
  IC90: 0.4 µg/mL (≈ 0.696 µM)
C. albicans; [11]
  MIC: 2.1 to 4 µg/mL (≈ 3.65 to 6.96 µM)
C. albicans; [12]
  MIC: 2.01 to 4 µg/mL (≈ 3.5 to 6.96 µM)
[1]; [13]
  IC90: > 50 µg/mL
[1]; [14]
  IC90: > 50 µg/mL
[2]; [4]
  Concentration at 90% Inhibition Fm: AA (compound concentration of 0.08 ppm at 90% inhibition of fungal pathogens)
[2]
  IC90: 0.08 µg/mL (≈ 0.139 µM)
Septoria tritici (St); [15]
  IC90: > 50 µg/mL
Septoria tritici (St); [16]
  IC90: > 50 µg/mL
C. krusei; [17]
  MIC: 2.1 to 4 µg/mL (≈ 3.65 to 6.96 µM)
C. krusei; [18]
  MIC: 1.01 to 2 µg/mL (≈ 1.76 to 3.48 µM)
[3]; [19]
  IC90: 2 µg/mL (≈ 3.48 µM)
[3]; [20]
  IC90: 2 µg/mL (≈ 3.48 µM)
Fungal (fACC2); Table 2a
  IC50: 1 to 5 nM
Fungal (fACC2); Table 2b, additional results
  IC50: 1 to 5 nM
Diplodia maydis (Dm); [21]
  IC90: 2 µg/mL (≈ 3.48 µM)
Diplodia maydis (Dm); [22]
  IC90: 10 µg/mL (≈ 17.4 µM)
